Here are results for six molecules from ChEMBL document CHEMBL3132769, “Fragment growing to retain or alter the selectivity of anchored kinase hinge-binding fragments” (Medchemcomm, 2014).

What is called inhibition is the drop in the measured response relative to a control, in per cent.

For experiment [1], the target named is Cyclin-dependent kinase 2 (Homo sapiens) (UniProt P24941). The experiment is described as follows: Inhibition of human full length CDK2 expressed in baculovirus assessed as substrate phosphorylation using fluorescence-labelled peptides as substrate at 8 uM after 90 mins by microfluidic peptide phosphorylation assay.
Experiment [2] deals with Hepatocyte growth factor receptor (Homo sapiens) (UniProt P08581). Kind of experiment: Inhibition of human MET cytoplasmic domain expressed in baculovirus assessed as substrate phosphorylation using fluorescence-labelled peptides as substrate at 8 uM after 90 mins by microfluidic peptide phosphorylation assay.
Hepatocyte growth factor receptor (Homo sapiens), sequence (P08581 whole entry, the tested form may be a part): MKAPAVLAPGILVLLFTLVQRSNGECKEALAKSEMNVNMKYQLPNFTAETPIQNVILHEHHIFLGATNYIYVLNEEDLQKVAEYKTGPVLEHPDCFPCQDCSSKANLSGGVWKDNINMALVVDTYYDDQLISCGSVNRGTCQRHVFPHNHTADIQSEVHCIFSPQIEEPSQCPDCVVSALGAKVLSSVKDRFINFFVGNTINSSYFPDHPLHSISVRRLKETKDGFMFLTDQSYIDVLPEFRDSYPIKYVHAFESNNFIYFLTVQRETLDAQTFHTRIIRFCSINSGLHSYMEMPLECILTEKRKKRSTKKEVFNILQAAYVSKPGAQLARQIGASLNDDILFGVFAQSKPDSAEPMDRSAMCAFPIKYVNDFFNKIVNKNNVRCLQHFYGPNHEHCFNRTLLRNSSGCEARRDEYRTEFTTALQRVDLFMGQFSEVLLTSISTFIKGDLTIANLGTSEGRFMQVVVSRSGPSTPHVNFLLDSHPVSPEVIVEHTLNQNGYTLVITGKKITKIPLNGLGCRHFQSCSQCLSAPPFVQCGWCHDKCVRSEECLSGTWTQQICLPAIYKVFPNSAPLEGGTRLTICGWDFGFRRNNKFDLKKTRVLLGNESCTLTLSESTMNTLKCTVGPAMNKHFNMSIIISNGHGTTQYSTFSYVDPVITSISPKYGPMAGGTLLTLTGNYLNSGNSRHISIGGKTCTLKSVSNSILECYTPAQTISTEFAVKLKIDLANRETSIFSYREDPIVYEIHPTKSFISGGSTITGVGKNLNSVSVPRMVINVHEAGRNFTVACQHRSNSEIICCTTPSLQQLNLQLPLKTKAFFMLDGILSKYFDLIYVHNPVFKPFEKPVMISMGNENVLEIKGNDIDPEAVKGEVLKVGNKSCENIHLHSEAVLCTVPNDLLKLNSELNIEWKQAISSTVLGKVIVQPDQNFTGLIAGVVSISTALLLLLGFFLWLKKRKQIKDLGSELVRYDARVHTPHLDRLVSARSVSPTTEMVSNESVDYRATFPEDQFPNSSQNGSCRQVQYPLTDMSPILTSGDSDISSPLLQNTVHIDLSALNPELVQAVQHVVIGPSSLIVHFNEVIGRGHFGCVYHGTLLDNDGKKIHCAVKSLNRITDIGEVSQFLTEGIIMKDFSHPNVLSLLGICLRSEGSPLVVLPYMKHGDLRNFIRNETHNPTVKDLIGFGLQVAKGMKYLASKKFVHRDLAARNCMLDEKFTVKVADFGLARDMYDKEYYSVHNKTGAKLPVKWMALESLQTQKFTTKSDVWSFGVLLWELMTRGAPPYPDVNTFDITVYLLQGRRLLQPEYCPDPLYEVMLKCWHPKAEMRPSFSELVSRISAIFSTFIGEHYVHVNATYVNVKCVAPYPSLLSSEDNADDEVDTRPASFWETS
In experiment [3] the target is Proto-oncogene tyrosine-protein kinase Src (Homo sapiens) (UniProt P12931). The experiment is described as follows: Inhibition of human full length SRC expressed in baculovirus assessed as substrate phosphorylation using fluorescence-labelled peptides as substrate at 420 uM after 90 mins by microfluidic peptide phosphorylation assay.
Proto-oncogene tyrosine-protein kinase Src (Homo sapiens), sequence (P12931 2-536 limits assumed): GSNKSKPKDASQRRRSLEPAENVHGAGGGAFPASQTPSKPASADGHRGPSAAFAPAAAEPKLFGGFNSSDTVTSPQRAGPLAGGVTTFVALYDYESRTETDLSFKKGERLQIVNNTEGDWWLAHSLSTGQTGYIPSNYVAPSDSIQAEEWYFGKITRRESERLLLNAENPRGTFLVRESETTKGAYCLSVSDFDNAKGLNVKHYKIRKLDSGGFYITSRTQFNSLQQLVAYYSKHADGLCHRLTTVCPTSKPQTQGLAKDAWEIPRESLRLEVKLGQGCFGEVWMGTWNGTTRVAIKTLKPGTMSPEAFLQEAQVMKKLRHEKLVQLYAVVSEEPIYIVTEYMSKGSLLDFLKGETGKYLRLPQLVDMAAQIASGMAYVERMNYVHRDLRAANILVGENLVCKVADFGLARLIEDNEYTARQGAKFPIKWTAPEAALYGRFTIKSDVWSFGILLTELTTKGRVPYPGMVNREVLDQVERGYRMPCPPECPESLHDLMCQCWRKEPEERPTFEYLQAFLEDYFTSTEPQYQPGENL
Experiment [4] deals with T1, Serine/threonine-protein kinase BRSK1 (Homo sapiens) (UniProt Q8TDC3).
T1 sequence (whole entry): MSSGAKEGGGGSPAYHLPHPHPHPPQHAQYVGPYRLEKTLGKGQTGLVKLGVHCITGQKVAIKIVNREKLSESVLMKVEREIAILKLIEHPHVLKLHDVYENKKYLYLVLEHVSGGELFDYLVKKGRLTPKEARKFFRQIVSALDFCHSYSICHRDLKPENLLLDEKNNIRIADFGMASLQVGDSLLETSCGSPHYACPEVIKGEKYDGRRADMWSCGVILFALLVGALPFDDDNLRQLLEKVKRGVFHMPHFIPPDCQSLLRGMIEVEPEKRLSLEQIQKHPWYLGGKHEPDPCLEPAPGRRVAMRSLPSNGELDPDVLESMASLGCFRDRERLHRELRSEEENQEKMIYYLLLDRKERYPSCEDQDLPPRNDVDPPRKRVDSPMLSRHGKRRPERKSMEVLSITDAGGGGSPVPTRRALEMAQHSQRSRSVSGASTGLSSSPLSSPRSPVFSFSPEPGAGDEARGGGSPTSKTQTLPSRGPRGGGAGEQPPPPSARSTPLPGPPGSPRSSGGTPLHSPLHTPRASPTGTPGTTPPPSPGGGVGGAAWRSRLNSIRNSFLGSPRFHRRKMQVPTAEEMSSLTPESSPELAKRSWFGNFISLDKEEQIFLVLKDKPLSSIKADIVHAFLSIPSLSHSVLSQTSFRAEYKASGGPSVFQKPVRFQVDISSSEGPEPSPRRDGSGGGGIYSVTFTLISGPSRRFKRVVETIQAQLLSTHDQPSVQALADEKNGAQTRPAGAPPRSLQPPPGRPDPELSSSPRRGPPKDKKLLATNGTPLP
The experiment is described as follows: Inhibition of human full length BRSK1 expressed in baculovirus assessed as substrate phosphorylation using fluorescence-labelled peptides as substrate at 420 uM after 90 mins by microfluidic peptide phosphorylation assay.

Experiment [5] concerns the target Mitogen-activated protein kinase 1 (Homo sapiens) (UniProt P28482). Kind of experiment: Inhibition of human full length ERK2 expressed in Escherichia coli cell assessed as substrate phosphorylation using fluorescence-labelled peptides as substrate at 0.06 uM after 90 mins by microfluidic peptide phosphorylation assay.
Experiment [6] deals with T1, Serine/threonine-protein kinase BRSK1 (Homo sapiens). The experiment is described as follows: Inhibition of human full length BRSK1 expressed in baculovirus assessed as substrate phosphorylation using fluorescence-labelled peptides as substrate at 9 uM after 90 mins by microfluidic peptide phosphorylation assay.
For experiment [7], the target named is T2, Serine/threonine-protein kinase BRSK2 (Homo sapiens) (UniProt Q8IWQ3).
T2 sequence (whole entry): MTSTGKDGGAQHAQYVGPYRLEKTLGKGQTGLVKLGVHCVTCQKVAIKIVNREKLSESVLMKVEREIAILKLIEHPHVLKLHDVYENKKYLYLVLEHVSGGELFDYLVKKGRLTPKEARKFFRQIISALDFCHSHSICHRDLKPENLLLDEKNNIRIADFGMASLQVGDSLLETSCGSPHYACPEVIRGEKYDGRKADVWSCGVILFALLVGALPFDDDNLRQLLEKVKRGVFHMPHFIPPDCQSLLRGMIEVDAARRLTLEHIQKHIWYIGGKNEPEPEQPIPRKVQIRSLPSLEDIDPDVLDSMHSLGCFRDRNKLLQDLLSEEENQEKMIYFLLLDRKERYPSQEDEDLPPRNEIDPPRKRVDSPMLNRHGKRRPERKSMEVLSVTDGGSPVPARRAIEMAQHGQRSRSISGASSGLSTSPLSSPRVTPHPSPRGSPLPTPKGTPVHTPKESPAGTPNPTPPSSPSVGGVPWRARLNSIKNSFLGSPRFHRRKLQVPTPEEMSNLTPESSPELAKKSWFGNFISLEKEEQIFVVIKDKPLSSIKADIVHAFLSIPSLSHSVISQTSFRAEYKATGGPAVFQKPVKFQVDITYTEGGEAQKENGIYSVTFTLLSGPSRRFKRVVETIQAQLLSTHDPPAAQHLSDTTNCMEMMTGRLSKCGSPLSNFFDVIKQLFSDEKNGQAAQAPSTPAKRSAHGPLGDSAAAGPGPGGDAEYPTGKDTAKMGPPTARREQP
The experiment is described as follows: Inhibition of human truncated BRSK2 expressed in baculovirus assessed as substrate phosphorylation using fluorescence-labelled peptides as substrate at 9 uM after 90 mins by microfluidic peptide phosphorylation assay.

In experiment [8] the target is Protein kinase C alpha type (Homo sapiens) (UniProt P17252). Kind of experiment: Inhibition of human truncated PKC alpha expressed in baculovirus assessed as substrate phosphorylation using fluorescence-labelled peptides as substrate at 9 uM after 90 mins by microfluidic peptide phosphorylation assay.
The target of experiment [9] is T3, Serine/threonine-protein kinase Sgk3 (Homo sapiens) (UniProt Q96BR1).
T3 sequence (whole entry): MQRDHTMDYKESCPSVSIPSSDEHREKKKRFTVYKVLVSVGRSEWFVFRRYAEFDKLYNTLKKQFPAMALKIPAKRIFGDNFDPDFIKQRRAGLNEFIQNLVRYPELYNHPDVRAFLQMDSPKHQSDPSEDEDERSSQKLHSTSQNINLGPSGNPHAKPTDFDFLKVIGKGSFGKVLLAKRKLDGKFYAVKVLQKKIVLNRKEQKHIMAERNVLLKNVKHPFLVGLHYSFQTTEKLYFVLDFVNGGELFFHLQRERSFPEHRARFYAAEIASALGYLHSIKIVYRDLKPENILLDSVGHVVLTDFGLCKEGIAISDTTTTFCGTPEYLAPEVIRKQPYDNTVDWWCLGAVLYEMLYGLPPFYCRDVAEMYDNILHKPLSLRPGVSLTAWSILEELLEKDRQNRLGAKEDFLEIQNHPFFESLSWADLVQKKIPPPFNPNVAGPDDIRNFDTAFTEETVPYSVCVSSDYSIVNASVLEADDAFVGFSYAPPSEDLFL
The experiment is described as follows: Inhibition of human full length SGK3 expressed in baculovirus assessed as substrate phosphorylation using fluorescence-labelled peptides as substrate at 2 uM after 90 mins by microfluidic peptide phosphorylation assay.

In experiment [10] the target is Casein kinase I isoform delta (Homo sapiens) (UniProt P48730). The experiment is described as follows: Inhibition of human CK1D catalytic domain expressed in Escherichia coli cell assessed as substrate phosphorylation using fluorescence-labelled peptides as substrate at […] after 90 mins by microfluidic peptide phosphorylation assay.
Casein kinase I isoform delta (Homo sapiens), sequence (P48730 whole entry, looked up, the tested form may be a part, canonical isoform): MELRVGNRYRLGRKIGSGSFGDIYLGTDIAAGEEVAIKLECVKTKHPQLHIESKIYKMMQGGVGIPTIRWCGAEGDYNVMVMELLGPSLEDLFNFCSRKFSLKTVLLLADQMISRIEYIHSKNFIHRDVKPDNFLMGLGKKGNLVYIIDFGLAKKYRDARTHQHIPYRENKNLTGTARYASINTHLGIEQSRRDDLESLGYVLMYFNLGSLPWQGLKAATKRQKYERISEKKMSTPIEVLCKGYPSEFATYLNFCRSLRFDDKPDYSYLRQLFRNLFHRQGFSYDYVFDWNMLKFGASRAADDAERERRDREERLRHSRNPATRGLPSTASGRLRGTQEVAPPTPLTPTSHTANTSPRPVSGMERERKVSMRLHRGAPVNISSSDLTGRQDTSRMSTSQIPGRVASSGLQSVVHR

Mitogen-activated protein kinase 1 (Homo sapiens), sequence (P28482 whole entry): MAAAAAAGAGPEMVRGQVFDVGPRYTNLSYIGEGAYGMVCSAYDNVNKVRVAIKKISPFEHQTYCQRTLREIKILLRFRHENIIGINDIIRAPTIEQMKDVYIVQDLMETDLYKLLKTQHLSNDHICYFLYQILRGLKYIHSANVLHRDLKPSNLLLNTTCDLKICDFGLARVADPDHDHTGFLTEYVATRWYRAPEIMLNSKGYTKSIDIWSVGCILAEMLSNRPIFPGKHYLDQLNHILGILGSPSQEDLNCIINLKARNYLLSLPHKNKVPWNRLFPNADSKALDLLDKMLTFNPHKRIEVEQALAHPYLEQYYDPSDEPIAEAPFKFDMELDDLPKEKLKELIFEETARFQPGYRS

In the case of `NCC1CCN(c2ncnc3[nH]ccc23)CC1`, the inhibition in [1] turned out to be 7%; in experiment [2], 9%. On to `c1nc(N2CCOCC2)c2nc[nH]c2n1`, for which the inhibition worked out at 62.5% in experiment [3] and 51.5% in experiment [4].

Consider `NC1(Cc2ccc(Cl)cc2)CCN(c2ncnc3[nH]ccc23)CC1`, for which, in experiment [5], the inhibition is 4.5%. For `NCC1CN(c2ncnc3[nH]c4cnccc4c23)CCO1` (stereo not given), the inhibition in experiment [6] was 29.5%; in experiment [7] it was 36%; in experiment [8], 14.5%. As for `NC1CCN(c2ncnc3[nH]ccc23)CC1`, the inhibition in [9] is 34.5%. On to `COC(=O)c1cnc(Nc2cnc(C#N)cn2)cc1NCC1CCNCC1`, for which the inhibition in experiment [10] is 10.5%.
